According to PMC10487310, “Enzyme‐responsive macrocyclic metal complexes for biomedical imaging” (Bioengineering & Translational Medicine, 2022):
Read-outs that look alike come from different tables or passages of the source. Ends that are not written are not given here.

Columns and labels:
[1] = system: 3T3‐L1 cells; assay: MTT cell viability; format: cell-based; details: 3T3 cells, 24 h treatment
Experimental: The viability of cells treated with macrocyclam derivatives was assessed by MTT and apoptosis detection assays, and by live/dead cell staining. The 3T3‐L1 cells were seeded onto 24‐well plates at a density of 1 × 10^5 cells per well for 24 h and the cells were treated with macrocyclam derivatives for 24 h. MTT (3‐(4,5‐dimethylthiazol‐2‐yl)‐2,5‐diphenyltetrazolium bromide) solution (final concentration, 500 μM) was added to each well and the cells incubated for 2 h. After aspiration of medium, the cells were dissolved in 200 μl dimethyl sulfoxide (DMSO; Sigma‐Aldrich). Formazan crystals generated by metabolically active cells were quantified by measuring optical density at 570 nm using a microplate reader (Tecan Group Ltd., Seestrasse, Mannedorf, Switzerland). Cell viability was analyzed by calculating the percent optical density of treated cells relative to control cells. Live and dead cell populations were determined using EZ‐view Live/Dead Cell Staining Kits (Biomax, Seoul, Republic of Korea). […] The absorbance of each well was measured at 490/545 nm using fluorescence microscopy (IX70; Olympus, Japan). Cell apoptosis was analyzed using a FACSCalibur flow cytometer (BD Biosciences, CA, USA) with annexin V staining. […] Cell surface expression was analyzed using a FACSCalibur flow cytometer (BD Biosciences), with the results analyzed using FlowJo software (BD Biosciences).

[2] = system: SCC7 tumor; format: in vivo, mice; details: for tumor/normal tissue (TN) ratio: Gd 0.7 mg/kg, T1-weighted signal intensity
Experimental: (§1) Five‐week‐old Balb/c or athymic nude mice (Raon Bio, Yongin, Republic of Korea) were used for in vivo experiments. All studies using animals conformed to the Guidelines for the Care and Use of Laboratory Animals of the Institute of Laboratory Animal Resources at Seoul National University (approved animal experimental protocol number, SNU‐190821‐5).
(§2) The biodistribution of macrocyclam derivatives was determined by MRI and positron emission tomography/computed tomography (PET/CT) scanning. Five‐week‐old female Balb/c nude mice were subcutaneously inoculated with 1 × 10^6 SCC7 cells on the dorsal left side. When tumor volumes reached 150 mm^3, samples were intravenously administered. For in vivo MRI, Gd@NrMC or Gd@ErMC was injected at a Gd dose of 0.7 mg/kg. The mice were monitored in vivo at different time points using an MRI scanner (Bruker‐Biospin) equipped with an animal‐imaging coil. For PET/CT imaging, ^64Cu@NrMC or ^64Cu@ErMC was injected at a ^64Cu dose of approximately 240 μCi/mouse, and the mice were monitored in vivo at different time point using a PET/CT scanner (Inveon microPET/CT scanner, Siemens Medical Solutions, Malvern, PA, USA).

[3] = Gd loading of macrocyclam derivatives by ICP-MS; format: physicochemical; details: gadolinium chloride in sodium acetate buffer pH 5.0, 2 h at 80°C, unloaded Gd removed on G-25 column
Experimental: (§3) Metal ions are complexed with macrocyclam derivatives in acidic condition (Figure 2c). The lyophilized macrocyclam derivatives were dissolved in distilled water. A 100 nmol aliquot of NrMC or ErMC was mixed with gadolinium chloride (Sigma‐Aldrich) or radioactive copper‐64 chloride in sodium acetate buffer (pH 5.0) and incubated for 2 h at 80°C. Unloaded Gd was removed using a PD‐SpinTrap™ G‐25 column (GE Healthcare, Little Chalfont, UK). The loading amount of Gd in each sample was measured by inductively coupled plasma mass spectrometry (ICP‐MS, Varian 820‐MS; Varian, Palo Alto, CA, USA). Gd chelation consists of a reaction between the Gd^3+ and arsenazo III dye under acidic conditions to form a blue–purple complex. Radioactivity was measured using a dose calibrator (Biodex Medical Systems, Shirley, NY, USA).

[4] = T1 relaxivity, 7 T MRI; format: physicochemical; details: 37°C, Gd 37, 75, 150 and 300 μM
Experimental: (§4) The size, zeta potential, and morphology of each macrocyclam derivative were determined. Size was measured using dynamic light scattering, and zeta potential was assessed by laser Doppler microelectrophoresis at an angle of 22°, with both size and zeta potential being measured using an ELS8000 instrument (Photal, Osaka, Japan). The relaxation times of Gd‐loaded materials were examined using a 7 T/20 MRI instrument (Bruker‐Biospin, Ettlingen, Germany) at 37°C. Each sample was serially diluted to Gd concentrations of 37, 75, 150, and 300 μM, and the T1‐weighted MR signal intensities of 200‐μl samples were determined. The relaxation rate, r1 (r1 = 1/T1), for each preparation was calculated from acquired images.

[5] = Hydrodynamic size by dynamic light scattering; format: physicochemical
Experimental: as §4

[6] = Zeta potential by laser Doppler microelectrophoresis; format: physicochemical
Experimental: as §4

[7] = Size stability of nanostructure in TDW, PBS or 10% serum; format: physicochemical; details: size measured in TDW, PBS or 10% serum (Figure S1)
Experimental: Fig. S1. Serum stability of macrocyclic complex
Size of ErMC was measured in TDW, PBS, or 10% serum condition.

[8] = system: SCC7 cells; assay: Cellular uptake, in vitro T1 MR imaging; format: cell-based, murine; details: Gd 100 μM, 24 h
Experimental: (§5) Cellular uptake was assessed by in vitro MR imaging, ICP‐MS, and scanning electron microscopy combined with energy‐dispersive x‐ray spectroscopy (SEM/EDS) analysis. For in vitro MR imaging, murine squamous cell carcinoma SCC7 cells were seeded onto six‐well plates at a density of 3 × 10^5 cells per well. After 24 h, the cells were treated with Gadovist or macrocyclam derivatives at Gd concentrations of 100 μM for 24 h. MR images were obtained and analyzed using an MRI scanner (Bruker‐Biospin). To assess enzyme‐dependent cellular uptake, 3T3‐L1 cells were pretreated with various concentrations of MMP‐9 (Sigma‐Aldrich). For ICP‐MS analysis, the cells were washed and completely dissolved with 90% nitric acid (Sigma‐Aldrich). To quantify Gd taken up by cells, the dissolved cells were digested with 1 ml of aqua regia (HCl: HNO3 = 3: 1, m/m) at 130°C. The solutions were completely dried and redissolved in deionized water, and the amounts of Gd were measured by ICP‐MS (Varian 820‐MS). For SEM/EDS analysis, SCC7 cells were seeded in cover glass‐inserted 24‐well plates at a density of 2 × 10^5 cells per well, followed by treatment of the samples for 24 h. A field‐emission SEM system (Supra 55VP; Carl Zeiss, Oberkochen, Germany) was used for SEM imaging combined with EDS mapping.

[9] = system: SCC7 cells; assay: Cellular uptake of Gd by ICP-MS; format: cell-based, murine; details: Gd 100 μM, 24 h
Experimental: as §5

[10] = system: 3T3‐L1 cells; assay: Enzyme-dependent cellular uptake of Gd by ICP-MS, MMP-spiked versus blank media; format: cell-based; details: 3T3-L1 cells pretreated with MMP-9, ICP-MS
Experimental: as §5

[11] = system: SCC7 cells; assay: SEM/EDS elemental mapping of treated cells; format: cell-based, murine; details: 24 h
Experimental: as §5

[12] = In vivo safety, H&E histology of major organs; details: Balb/c mice, intravenous, Gd 3.5 mg/kg, 1 week, n = 4 per group
Experimental: (§6) The in vivo safety of macrocyclam derivatives was determined by histological and serological analyses. Five‐week‐old Balb/c mice were intravenously administered with at Gd@NrMC or Gd@ErMC at a Gd dose of 3.5 mg/kg. Briefly, NrMC (470 nmol) or ErMC (650 nmol) was mixed with gadolinium chloride in sodium acetate buffer (pH 5.0) and incubated for 2 h at 80°C. Unloaded Gd was removed using a PD‐SpinTrap™ G‐25 column. The samples including 70 μg of Gd were intravenously administered to mice. After 1 week, animals (n = 4 per group) were euthanized, and their organs (heart, lung, liver, spleen, and kidney) and sera were collected for histopathological and biochemical evaluation. Extracted organs were fixed in 10% formalin solution for 24 h and embedded in paraffin. For hematoxylin and eosin staining, each organ section was immersed in filtered Harris hematoxylin for 10 s and then in eosin for 30 s. The stained slides were visualized using a Vectra 3.0 Automated Quantitative Pathology Imaging System (PerkinElmer, Hopkinton, MA, USA), and the images were analyzed using InForm v2.4.11. software (PerkinElmer). The serum concentrations of alanine aminotransferase (ALT), aspartate aminotransferase (AST), […] (ALP), blood urea nitrogen (BUN), and total bilirubin (TBIL) were measured using an automatic chemistry analyzer (DRI‐CEHM 3500s; Fujifilm, Kanagawa, Japan).

[13] = In vivo safety, serum biochemistry (ALT, AST, ALP, BUN, TBIL); details: Balb/c mice, Gd 3.5 mg/kg, 1 week after injection, compared with untreated mice
Experimental: as §6

[14] = Copper-64 chloride loading, radioactivity by dose calibrator; format: physicochemical; details: sodium acetate buffer pH 5.0, 2 h at 80°C
Experimental: as §3

[15] = system: SCC7 tumor; assay: In vivo PET/CT imaging of tumor-bearing mice
Experimental: as §1, §2

## O=C([O-])CN1CCN(CC(=O)[O-])CCN([C@H](CO)[C@H](O)CO)CCN(CC(=O)[O-])CC1.[Gd+3] (racemic) [Gadovist, reference compound]
[1]
  viability of cells (MTT): no effect
[2]; 1 h to 24 h after intravenous injection
  change of tumor/normal tissue (TN) ratio over time: not enhanced over time

## GGPLGVRGGGGG-OH [Gd@ErMC, Gd loaded into enzyme-responsive macrocyclam modified with a PEGylated MMP-cleavable peptide; self-assembled nanoparticles]
[3]
  gadolinium loading capacity: 29.3 ± 14.5 mol%
[4]
  longevity relaxivity (r1): 33.4 mM⁻¹ s⁻¹
[5]
  hydrodynamic size: 310.2 ± 50.2 nm
[6]
  zeta potential: slightly positive
[7]
  nanostructure in physiological conditions: maintained
[8]
  T1 MRI signal of MMP-overexpressing cells: higher for the Gd@ErMC group than for other groups
[9]
  intracellular Gd concentration relative to Gd@NrMC-treated cells: 32.2 fold
[10]
  Gd accumulation in cells treated with MMP relative to blank media: 7.2 fold
[11]
  colocalization of Gd on the cell surface (EDS-SEM): bound to cell membranes
[2]; 1 h after intravenous injection
  tumor/normal tissue (TN) ratio: 1.8
[2]; 24 h after intravenous injection
  tumor/normal tissue (TN) ratio: 3.4
[12]
  histology of heart, lungs, liver, spleen and kidneys: no visible microscopically abnormal features
[13]
  liver and kidney function enzyme levels in blood: within normal range

## GGPLGVRGGGGG-OH [^64Cu@ErMC]
[14]
  copper-64 chloride loading capacity: 22.4%
[15]; 24 h post-dose
  percentage of injected 64Cu in tumors relative to 64Cu@NrMC-treated mice: 2.9 fold
[15]; 48 h post-dose
  percentage of injected 64Cu in tumors relative to 64Cu@NrMC-treated mice: 2 fold
[15]; intravenous, approximately 240 μCi/mouse, SCC7 tumor-bearing mice
  PET signal in tumor tissue: enhanced signals
